How the values were obtained:
[1] = target: T1, Phosphodiesterase 10A (PDE10A) (Rattus norvegicus, UniProt Q9QYJ6); experiment: [3H]TAK-063 saturation binding on rat brain sections (autoradiography); Kd […] NAc shell, […] CPu
T1 construct: native PDE10A in rat brain sections
T1 sequence (Q9QYJ6 1-794): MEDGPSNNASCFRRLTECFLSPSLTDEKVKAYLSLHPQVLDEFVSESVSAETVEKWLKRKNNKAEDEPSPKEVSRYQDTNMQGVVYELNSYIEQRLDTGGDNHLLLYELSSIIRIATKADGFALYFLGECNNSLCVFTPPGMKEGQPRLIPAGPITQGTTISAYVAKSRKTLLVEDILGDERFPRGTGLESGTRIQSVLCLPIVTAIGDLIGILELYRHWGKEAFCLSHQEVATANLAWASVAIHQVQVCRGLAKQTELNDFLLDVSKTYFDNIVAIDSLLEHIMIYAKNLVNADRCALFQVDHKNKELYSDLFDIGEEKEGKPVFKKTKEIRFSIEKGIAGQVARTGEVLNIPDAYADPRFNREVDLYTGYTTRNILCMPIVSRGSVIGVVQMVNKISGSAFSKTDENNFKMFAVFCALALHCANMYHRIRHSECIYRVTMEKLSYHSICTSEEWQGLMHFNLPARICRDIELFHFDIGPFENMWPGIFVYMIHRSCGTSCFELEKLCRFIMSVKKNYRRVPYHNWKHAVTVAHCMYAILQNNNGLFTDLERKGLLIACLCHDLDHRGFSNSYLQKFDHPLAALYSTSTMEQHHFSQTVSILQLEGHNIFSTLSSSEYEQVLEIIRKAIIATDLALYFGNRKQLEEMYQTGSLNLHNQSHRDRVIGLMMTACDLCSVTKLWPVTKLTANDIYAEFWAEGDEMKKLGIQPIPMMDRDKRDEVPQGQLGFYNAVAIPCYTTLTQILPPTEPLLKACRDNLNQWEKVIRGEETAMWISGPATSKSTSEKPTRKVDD

[2] = target: T2, Phosphodiesterase PDE10A1 (Homo sapiens, UniProt Q9Y233); experiment: enzyme inhibition panel at […] (Ricerca Biosciences), […] inhibition; format: biochemical
T2 construct: gene PDE10A; PDE10A1
T2 sequence (Q9Y233 1-779 isoform Q9Y233-1): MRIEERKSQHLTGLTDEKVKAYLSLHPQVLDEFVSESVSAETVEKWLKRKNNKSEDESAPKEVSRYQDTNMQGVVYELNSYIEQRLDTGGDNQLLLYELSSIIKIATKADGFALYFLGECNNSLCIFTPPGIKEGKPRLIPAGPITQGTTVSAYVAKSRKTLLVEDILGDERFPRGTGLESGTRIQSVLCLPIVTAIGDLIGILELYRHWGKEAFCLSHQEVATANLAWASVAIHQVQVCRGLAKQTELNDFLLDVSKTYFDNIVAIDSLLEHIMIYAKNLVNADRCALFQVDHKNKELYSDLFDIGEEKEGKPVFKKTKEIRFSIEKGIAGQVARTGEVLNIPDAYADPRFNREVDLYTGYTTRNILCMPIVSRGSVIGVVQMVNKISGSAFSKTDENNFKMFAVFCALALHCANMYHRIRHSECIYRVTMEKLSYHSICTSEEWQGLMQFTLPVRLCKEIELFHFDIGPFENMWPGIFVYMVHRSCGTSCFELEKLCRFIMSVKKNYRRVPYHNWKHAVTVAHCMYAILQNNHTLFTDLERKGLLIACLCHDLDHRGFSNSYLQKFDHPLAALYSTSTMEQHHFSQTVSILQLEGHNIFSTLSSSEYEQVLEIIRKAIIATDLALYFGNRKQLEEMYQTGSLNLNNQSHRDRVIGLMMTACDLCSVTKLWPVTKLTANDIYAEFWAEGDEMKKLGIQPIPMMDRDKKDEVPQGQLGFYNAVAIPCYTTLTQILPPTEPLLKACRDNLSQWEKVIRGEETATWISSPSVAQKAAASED

## COc1cn(-c2ccc(-n3cccn3)cc2F)nc(-c2ccnn2-c2ccccc2)c1=O [TAK-063, 1-[2-fluoro-4-(1H-pyrazol-1-yl)phenyl]-5-methoxy-3-(1-phenyl-1H-pyrazol-5-yl)-pyridazin-4(1H)-one]
[1]
  Kd: 2.6 nM
[2]
  inhibition at 10 µM: 101%
